{"source": "patent US20230105212A1", "about": "“BIPHENYL DERIVATIVE INHIBITOR, PREPARATION METHOD THEREFOR AND USE THEREOF” (SHANGHAI HANSOH BIOMEDICAL CO., LTD., priority 2020, published 2023)", "key": {"human PD-1/PD-L1 binding": {"molecular_target": "T1, human PD-1/PD-L1 binding (Homo sapiens, UniProt Q9NZQ7)", "T1 construct": "PD-L1-His protein (19 to 238 amino acids) (Abcam #ab167713); purchased Abcam (PD-L1-His); R&D (PD-1-Fc) ab167713; 1086-PD", "T1 sequence (Q9NZQ7 19-238)": "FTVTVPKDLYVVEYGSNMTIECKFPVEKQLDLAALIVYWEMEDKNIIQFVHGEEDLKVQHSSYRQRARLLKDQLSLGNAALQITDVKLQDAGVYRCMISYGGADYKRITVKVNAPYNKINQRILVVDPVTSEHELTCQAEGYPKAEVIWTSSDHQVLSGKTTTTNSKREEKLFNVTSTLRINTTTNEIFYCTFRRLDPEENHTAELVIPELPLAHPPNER", "experiment": "Inhibition of human PD-1/PD-L1 binding (TR-FRET/HTRF)", "settings": "TR-FRET, PD-L1-His and PD-1-Fc; read-out: PD-1/PD-L1 binding IC50", "method_in_brief": "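PD-L1-His (aa 19–238, diluted to 10 nM) and PD-1-Fc (aa 25–167, diluted to 20 nM) incubated with compounds (10 μM or 1 μM top, 3-fold, 11 doses) 60 min at room temperature, then anti-6HIS Eu cryptate/anti-human IgG-XL665 added for 3 h RT or overnight 4 °C. HTRF 665/620 nm ratio gave inhibition and IC50.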"}, "[1]": {"test_system": "CHO-PDL1/Jurkat-PD1 cell pathway", "experiment": "Inhibition of CHO-PDL1/Jurkat-PD1 cell pathway (NFAT luciferase reporter)", "format": "cell-based", "settings": "for EC50: 6 hours incubation, luciferase signal; for maximal fold induction: relative to the signal value of the non-dosed group, read-out: Maximum induction fold", "method_in_brief": "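CHO-K1 cells stably expressing PD-L1, plated overnight, then co-cultured with PD-1/NFAT-luc2 Jurkat cells plus compounds in RPMI 1640 with 2% FBS for 6 h at 37 °C. Luminescence read after One-Glo, 10 min at RT. EC50 fitted from the concentration–signal curve; maximum induction fold calculated relative to the non-dosed group.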"}}}
{"smiles": "COc1nc(-c2cccc(-c3cccc(NC(=O)c4nc5c(n4C)CCN(C)C5)c3Cl)c2Cl)ccc1CN1CC(C(=O)N(C)C)C1", "note": "[Embodiment 183, N-(2,2′-Dichloro-3′-(5-((3-(dimethylcarbamoyl)azetidin-1-yl)methyl)-6-methoxypyridin-2-yl)-[1,1′-biphenyl]-3-yl)-1,5-dimethyl-4,5,6,7-tetrahydro-1H-imidazo[4,5-c]pyridine-2-carboxamide]", "values": [{"measurement": "IC50", "setting": "human PD-1/PD-L1 binding", "value": 4.7, "unit": "nM"}]}
{"smiles": "COc1nc(-c2cccc(-c3cccc(NC(=O)c4nc5c(n4C)CCN(C)C5)c3Cl)c2Cl)ccc1CN[C@H]1CCOC[C@@H]1O", "note": "(relative stereo) [Embodiment 175, N-(2,2′-Dichloro-3′-(5-((((3,4-trans)-3-hydroxytetrahydro-2H-pyran-4-yl)amino)methyl)-6-methoxypyridin-2-yl)-[1,1′-biphenyl]-3-yl)-1,5-dimethyl-4,5,6,7-tetrahydro-1H-imidazo[4,5-c]pyridine-2-carboxamide]", "values": [{"measurement": "EC50", "setting": "[1]", "value": 86, "unit": "nM"}, {"measurement": "maximal fold induction", "setting": "[1]", "value": 3.6}, {"measurement": "IC50", "setting": "human PD-1/PD-L1 binding", "value": 4.2, "unit": "nM"}]}
{"smiles": "COc1nc(-c2cccc(-c3cccc(NC(=O)c4nc5c(n4C)CCN(C)C5)c3Cl)c2Cl)ccc1CN1CC(NC(C)=O)C1", "note": "[Embodiment 180, N-(3′-(5-((3-Acetylaminoazetidin-1-yl)methyl)-6-methoxypyridin-2-yl)-2,2′-dichloro-[1,1′-biphenyl]-3-yl)-1,5-dimethyl-4,5,6,7-tetrahydro-1H-imidazo[4,5-c]pyridine-2-carboxamide]", "values": [{"measurement": "EC50", "setting": "[1]", "value": 47, "unit": "nM"}, {"measurement": "maximal fold induction", "setting": "[1]", "value": 3.1}, {"measurement": "IC50", "setting": "human PD-1/PD-L1 binding", "value": 3.8, "unit": "nM"}]}
{"smiles": "COc1nc(-c2cccc(-c3cccc(NC(=O)c4nc5c(n4C)CCN(C)C5)c3Cl)c2Cl)ccc1CN1CC2(CCC(=O)N2)C1", "note": "[Embodiment 126, N-(2,2′-Dichloro-3′-(6-methoxy-5-((6-carbonyl-2,5-diazaspiro[3.4]octan-2-yl)methyl)pyridin-2-yl)-[1,1′-biphenyl]-3-yl)-1,5-dimethyl-4,5,6,7-tetrahydro-1H-imidazo[4,5-c]pyridine-2-carboxamide]", "values": [{"measurement": "EC50", "setting": "[1]", "value": 94, "unit": "nM"}, {"measurement": "maximal fold induction", "setting": "[1]", "value": 3.5}, {"measurement": "IC50", "setting": "human PD-1/PD-L1 binding", "value": 2, "unit": "nM"}]}
{"smiles": "COc1nc(-c2cccc(-c3cccc(NC(=O)c4nc5c(n4C)CCN(C)C5)c3Cl)c2Cl)ccc1CNC1COC1", "note": "[Embodiment 114, N-(2,2′-Dichloro-3′-(6-methoxy-5-((oxetan-3-ylamino)methyl)pyridin-2-yl)-[1,1′-biphenyl]-3-yl)-1,5-dimethyl-4,5,6,7-tetrahydro-1H-imidazo[4,5-c]pyridine-2-carboxamide]", "values": [{"measurement": "IC50", "setting": "human PD-1/PD-L1 binding", "value": 4.3, "unit": "nM"}]}
{"smiles": "COc1nc(-c2cccc(-c3cccc(NC(=O)c4nc5c(n4C)CCN(C)C5)c3Cl)c2Cl)ccc1CNC[C@H](C)O", "note": "[Embodiment 127, (S)—N-(2,2′-Dichloro-3′-(5-(((2-hydroxypropyl)amino)methyl)-6-methoxypyridin-2-yl)-[1,1′-biphenyl]-3-yl)-1,5-dimethyl-4,5,6,7-tetrahydro-1H-imidazo[4,5-c]pyridine-2-carboxamide]", "values": [{"measurement": "IC50", "setting": "human PD-1/PD-L1 binding", "value": 4.6, "unit": "nM"}]}
{"smiles": "COc1nc(-c2cccc(-c3cccc(NC(=O)c4nc5c(n4C)CCN(C)C5)c3Cl)c2Cl)ncc1CN1CC(CNC(C)=O)C1", "note": "[Embodiment 225, N-(3′-(5-((3-(Acetylaminomethyl)azetidin-1-yl)methyl)-4-methoxypyrimidin-2-yl)-2,2′-dichloro-[1,1′-biphenyl]-3-yl)-1,5-dimethyl-4,5,6,7-tetrahydro-1H-imidazo[4,5-c]pyridine-2-carboxamide]", "values": [{"measurement": "IC50", "setting": "human PD-1/PD-L1 binding", "value": 4.5, "unit": "nM"}]}
{"smiles": "COc1nc(-c2cccc(-c3cccc(NC(=O)c4nc5c(n4C)CCN(C)C5)c3Cl)c2Cl)ccc1CN1CC2(COC2)C1", "note": "[Embodiment 124, N-(3′-(5-((2-Oxa-6-azaspiro[3.3]heptan-6-yl)methyl)-6-methoxypyridin-2-yl)-2,2′-dichloro-[1,1′-biphenyl]-3-yl)-1,5-dimethyl-4,5,6,7-tetrahydro-1H-imidazo[4,5-c]pyridine-2-carboxamide]", "values": [{"measurement": "IC50", "setting": "human PD-1/PD-L1 binding", "value": 3.8, "unit": "nM"}]}
